What was measured:
[1] = Biodegradability in marine medium, OCDE test 306; settings: in words
Method: (§1) According to OCDE test 306 (marine medium), the composition of the invention (B1), comprising a compound of formula (I), has a biodegradability of 70%, i.e. greater than 60%. […] Its Log Pow measured according to OCDE 117 by HPLC is 2.93<3. Its Algal ecotoxicity is 2 mg·L^−1.

[2] = Bioaccumulation, Log Pow according to OCDE 117 by HPLC; format: physicochemical
Method: as §1

Biodegradability classification [1] | Bioaccumulation, in words [2] | Substance
not biodegradable | bioaccumulable | di-tallow-hydrogenodimethylammonium chloride [Noramium® M2SH]
not biodegradable | bioaccumulable | dicocoyldimethylammonium chloride [Noramium® M2C]

Source: US10774281B2, “Use of a particular carboxylic amino acid in order to limit the formation and/or agglomeration of gas hydrates” (Arkema France, priority 2015, dated 2020)
